Results published in publication PMC6099623, “Novel Thiazolidinone/Thiazolo[3,2-a]Benzimidazolone-Isatin Conjugates as Apoptotic Anti-proliferative Agents Towards Breast Cancer: One-Pot Synthesis and In Vitro Biological Evaluation” (Molecules : A Journal of Synthetic Chemistry and Natural …, 2018).
Read-outs that look alike come from different tables or passages of the source.

What was measured:
[1] = tested on: MDA-MB-231 breast cancer cell line; test: Crystal Violet antiproliferative assay, MDA-MB-231; format: cell-based; conditions: Homo sapiens, MDA-MB-231, 48 h, 48 h of incubation, mean ± S.D. of three separate experiments
Method: (§1) The in vitro antiproliferative activity of the newly synthesized conjugates 4a–n and 7a–d was evaluated against breast cancer MDA-MB-231 and MCF-7 cell lines, following the Crystal Violet (CV) cell cytotoxicity assay. Doxorubicin was included in this assay as a positive control, and Sunitinib was used as a reference drug.
(§2) Breast cancer cell lines MDA-MB-231 and MCF-7 cells were obtained from VACSERA Tissue Culture Unit. The cells were propagated in DMEM supplemented with 10% heat-inactivated fetal bovine serum, 1% L-glutamine (2.5 mM), HEPES (4-(2-hydroxyethyl)-1-piperazineethanesulfonic acid) buffer (10 mM) and 50 µg/mL gentamycin. All cells were maintained at 37 °C in a humidified atmosphere with 5% CO2 and were sub-cultured two times a week. Cytotoxicity was determined following the Crystal Violet (CV) cell cytotoxicity assay.
(§3) Test samples were dissolved in DMSO and kept at a stock concentration of 100 mM. Exponentially growing cells were collected using 0.25% Trypsin-EDTA and seeding was done at a density of 3000 cells/well in 96-well plates. After 24 h, the monolayer cultured cells were washed with sterile phosphate buffered saline (0.01 M pH 7.2) and simultaneously the cells were treated with […] from 10 different dilutions of the test compounds as well as Doxorubicin was […] Control wells were exposed to the same concentration of vehicle, DMSO (1%) used in the highest concentration of the test samples. Cell viability was >99% compared to untreated cells. The number of the surviving cells was determined by staining the cells with crystal violet followed by cell lysing using 33% glacial acetic acid. The absorbance was measured at 490 nm using ELISA reader (Thermo Fisher Scientific, Waltham, MA, USA) after gentle shaking. The absorbance values from untreated cells were considered as 100% proliferation.
(§4) The number of viable cells was determined using ELISA reader as previously mentioned and the percentage of viability was calculated as […] where ODt is the mean optical density of wells treated with the test sample and ODc is the mean optical density of untreated cells. The 50% inhibitory concentration (IC50) was estimated from graphic plots of the dose response curve for each conc. using GraphPad Prism software, Version 5 (San Diego, CA, USA). The data presented are the mean of at least three separate experiments.

[2] = tested on: MCF-7 breast cancer cell line; test: Crystal Violet antiproliferative assay, MCF-7; format: cell-based; conditions: for IC50: Homo sapiens, MCF7, 48 h, Crystal Violet assay, 48 h of incubation, mean ± S.D. of three separate experiments
Method: as §1, §2, §3, §4

[3] = tested on: lung fibroblast cell line (WI-38); test: Crystal violet cytotoxicity towards nontumorigenic WI-38; format: cell-based; conditions: Homo sapiens, nontumorigenic cells, mean ± S.D. of three separate experiments
Method: (§5) The cytotoxic activity of the active conjugates towards MDA-MB-231 cells (4c–e, 4g, 4l–n and 7a–d) was examined against nontumorigenic human lung fibroblast cell line (WI-38) and human breast epithelial cell line (MCF-10A) to investigate the potential safety of the newly prepared conjugates towards the normal cells. […] The results were expressed as IC50 values, and selectivity index was calculated (Table 2).
(§6) The cytotoxic activity of the active conjugates towards nontumorigenic human lung fibroblast cell line (WI-38) and human breast epithelial cell line (MCF-10A) was determined using Crystal violet (CV) cell cytotoxicity assay according to the previously published procedures.

[4] = tested on: breast epithelial cell line (MCF-10A); test: Crystal violet cytotoxicity towards nontumorigenic MCF-10A; format: cell-based, human; conditions: for IC50: Homo sapiens, MCF-10A, nontumorigenic cells, mean ± S.D. of three separate experiments; for Selectivity Index (MCF-10A/MDA-MB-231): ratio of IC50 MCF-10A to IC50 MDA-MB-231
Method: as §5, §6

Bax = test: ELISA immunoassay of Bax level in MDA-MB-231 cells; format: cell-based; conditions: MDA-MB-231 cells treated at IC50 concentration; for Bax / Bax, number of folds of control: 48 h; for Bax/Bcl-2: control 3.9
Method: (§7) In our study, we investigated the effect of conjugates 4m and 7b towards the level of the antiapoptotic Bcl2 and the level of the pro-apoptotic Bax, (Table 3, Figure 2).
(§8) The levels of the apoptotic markers (Bax, caspase-3) as well as the antiapoptotic marker Bcl-2 were determined using ELISA colorimetric kits per the manufacturer’s instructions, as reported earlier. MDA-MB-231 cells were cultured as a monolayer in T-25 flasks and were seeded to attain 30% confluency prior to treatment. […] At the end of treatment, cells were collected via trypsinization and centrifuged at 10,000 rpm. The pellet was then rinsed with PBS and lysed in RIPA lysis buffer at 4 °C for 45 min, then centrifuged at 14,000 rpm for 20 min to remove the cellular debris. Lysates were then collected and stored at −80 °C for later protein determination using Pierce BCA Protein Assay Kit (Pierce Biotechnology, Rockford, IL, USA) according to manufacturer’s recommendations.
(§9) The cell lysate was diluted 10 times, and 100 μL ([…]) was added to the wells of […] that were pre-coated with primary antibodies specific to Bax, Bcl-2 and caspase-3 proteins, respectively. A secondary biotin-linked antibody specific to the protein captured by the primary antibody was further added to bind the captured protein, forming a “sandwich” of specific antibodies around the desired protein in the cell lysate. The streptavidin-HRP complex was then used to bind the biotin-linked secondary antibody through its streptavidin portion. The HRP domain reacted with the added TMB substrate to form a colored product that measured at 450 nm by a plate reader (ChroMate-4300, Orlando, FL, USA) after the reaction was terminated via the addition of stop solution.

Bcl-2 = test: ELISA immunoassay of Bcl-2 level in MDA-MB-231 cells; format: cell-based; conditions: MDA-MB-231 cells treated at IC50 concentration; for Bcl-2 / Bcl-2, number of folds of control: 48 h
Method: as §7, §8, §9

caspase-3 = test: ELISA immunoassay of active caspase-3 level in MDA-MB-231 cells; format: cell-based; conditions: MDA-MB-231 cells treated at IC50 concentration, 48 h
From the text: The down-regulation of the antiapoptotic Bcl-2 leads to an increase in the levels of free pro-apoptotic Bax which in turn accumulates at the inner mitochondrial membrane forming channels, altering membrane permeability. Accordingly, the apoptotic factors can leak into the cytoplasm resulting in the caspases cascade activation. As a key executioner protease, caspase-3 is activated by upstream initiator caspases as caspase-9 [48]. Thence, the elevated Bax/Bcl-2 ratios obtained herein triggered the examination of the protein expression levels of active caspases-3. Treatment of TNBC MDA-MB-231 cells with conjugates 4m and 7b led to a significant increase in the active caspase-3 levels by 6.4 and 4.9 folds, respectively, compared to control (Table 3, Figure 3).
as §8, §9

MDA-MB-231 cells [5] = test: Cell cycle analysis by DNA flow cytometry; format: cell-based; conditions: 24 h at IC50 concentration
Method: The effect of hybrid 4m on cell cycle progression was evaluated in TNBC MDA-MB-231 cells after 24 h of treatment (Figure 4). Such impact was illustrated by DNA flow cytometric assay where MDA-MB-231 cells were treated with conjugate 4m at its IC50 concentration.
Subsequently, the treated cells were collected by centrifugation, fixed in ice-cold 70% (v/v) ethanol, washed with PBS, re-suspended with 100 μg/mL RNase, stained with 40 μg/mL PI, and analyzed by flow cytometry using FACS Calibur (Becton Dickinson, BD, Franklin Lakes, NJ, USA). The cell cycle distributions were calculated using CellQuest software 5.1 (Becton Dickinson).

MDA-MB-231 cells [6] = test: Annexin V-FITC/PI apoptosis assay; format: cell-based; conditions: MDA-MB-231 at IC50 concentration
Method: Annexin V-based flow cytometry assay elucidates either that cell death is achieved via programmed apoptosis or nonspecific necrosis.
Phosphatidylserine externalization was assayed using Annexin V-FITC/PI apoptosis detection kit (BD Biosciences, San Jose, CA, USA) according to the manufacturer’s instructions, as reported earlier. MDA-MB-231 cells were cultured to a monolayer then treated with conjugate 4m at its IC50 concentration as described earlier. Cells were then harvested via trypsinization, and rinsed twice in PBS followed by binding buffer. Moreover, cells were re-suspended in 100 μL of binding buffer with the addition of 1 μL of FITC-Annexin V (Becton Dickinson BD Pharmingen^TM, Heidelberg, Germany) followed by an incubation period of 30 min at 4 °C. Cells were then rinsed in binding buffer and resuspended in 150 μL of binding buffer with the addition of 1 μL of DAPI (1 μg/μL in PBS) (Invitrogen, Life Technologies, Darmstadt, Germany). Cells were then analyzed using the flow cytometer BD FACS Canto II (BD Biosciences, San Jose, CA, USA) and the results were interpreted with FlowJo7.6.4 software (Tree Star, Ashland, OR, USA).

[7] = tested on: MCF-7 breast cancer cell line; design: method as in PMID 28802125; conditions: earlier work of the authors; cited from earlier work

What does the source list for Cc1ccc(N=C2SC(=C3C(=O)Nc4ccc(C)cc43)C(=O)N2c2ccc(C)cc2)cc1 [Compound 4m, 5-(5-Methyl-2-oxoindolin-3-ylidene)-3-(p-tolyl)-2-(p-tolylimino)thiazolidin-4-one]?
IC50 [1]: 7.6 ± 0.5 µM; IC50 [2]: 8.4 ± 0.5 µM; Decreased activity against MCF-7 relative to doxorubicin ([2]; IC50 ratio to doxorubicin): 2.2 fold; IC50 [3]: 49.1 ± 1.9 µM; IC50 [4]: 73.1 ± 2.7 µM; Selectivity Index (MCF-10A/MDA-MB-231) [4]: 9.6; Boost of Bax/Bcl-2 ratio compared to control (Bax): 33 folds; Bax (Bax): 274.8 ± 13.5 pg/mg of Total Protein; Bax, number of folds of control (Bax): 11.1 folds of control; Bax/Bcl-2 (Bax): 130.5; Downregulation of Bcl-2 expression level compared to control (Bcl-2): 66.6%; Bcl-2 (Bcl-2): 2.1 ± 0.1 ng/mg of Total Protein; Bcl-2, number of folds of control (Bcl-2): 0.33 folds of control; Caspase-3 (caspase-3): 0.19 ± 0.01 ng/mg of Total Protein; Caspase-3, number of folds of control (caspase-3): 6.4 folds of control; Arrest in G2-M phase compared to control (MDA-MB-231 cells [5]): 2.5 folds; Rise in percentage of cells at Sub-G1 compared to control (MDA-MB-231 cells [5]): 4 folds; Increase of annexin V-FITC-positive apoptotic cells compared with control (MDA-MB-231 cells [6]): about 6 folds; Percent of annexin V-FITC-positive apoptotic cells, early and late (UR + LR) (MDA-MB-231 cells [6]; control 1.92%): 11.43%

For COc1ccc2c(c1)C(=c1sc3nc4ccccc4n3c1=O)C(=O)N2 [Compound 7b, 2-(5-Methoxy-2-oxoindolin-3-ylidene)benzo[4,5]imidazo[2,1-b]thiazol-3(2H)-one], which IC50 [1] is on record?
The IC50 was 13.2 ± 1.7 µM.

What about the IC50 [2] of the same compound?
Its IC50 is 21.7 ± 1.5 µM.

What about the IC50 [3] of the same compound?
The IC50 was 121 ± 6.9 µM.

What about the IC50 [4] of the same compound?
The IC50 was 184 ± 8 µM.

And the “Selectivity Index (MCF-10A/MDA-MB-231)” value [4]?
Its value is 13.9.

What about the “Boost of Bax/Bcl-2 ratio compared to control” value (Bax) of the same compound?
The value was 16 folds.

And the Bax (Bax)?
The Bax was 180.0 ± 7.3 pg/mg of Total Protein.

What about the “Bax, number of folds of control” value (Bax) of the same compound?
The value was 7.3 folds of control.

And the Bax/Bcl-2 (Bax)?
Its Bax/Bcl-2 is 64.1.

What about the “Downregulation of Bcl-2 expression level compared to control” value (Bcl-2) of the same compound?
The value was 55.1%.

What about the Bcl-2 (Bcl-2) of the same compound?
Its Bcl-2 is 2.8 ± 0.1 ng/mg of Total Protein.

What about the “Bcl-2, number of folds of control” value (Bcl-2) of the same compound?
Its value is 0.45 folds of control.

What about the Caspase-3 (caspase-3) of the same compound?
Its Caspase-3 is 0.15 ± 0.01 ng/mg of Total Protein.

And the “Caspase-3, number of folds of control” value (caspase-3)?
The value was 4.9 folds of control.

What about the melting point of the same compound?
Its melting point is over 300 °C.

For NS(=O)(=O)c1ccc(/N=C2\NC(=O)/C(=C3/C(=O)Nc4ccc(Cl)cc43)S2)cc1 [compound VI], which IC50 [7] is on record?
The IC50 was 3.96 ± 0.21 µM.
